Data published in patent US20050233984A1, “Composition for preventing or treating degenerative brain diseases comprising a hydrolysate of ginsenosides” (Digital Biotech Co., Ltd., priority 2002, published 2005).

What was measured:
[1] = system: α-secretase; test: sAPPα secretion by Western blotting in B103 cells; format: cell-based; details: 1 μM, 18 hours, compared with untreated control, FIG. 5
Protocol: In order to examine whether the ginseng-originated compounds can inhibit beta-amyloid production, the activity of α-secretase, which cleaves beta-amyloid, was examined.
1×10^6 cells of neuroblastoma B103 cell line (donated by Dr. David Schubert of the Salk Institute, USA), which secretes APP (amyloid precursor protein), were plated on a […] with 100 μl of DMEM medium containing 10% FBS (Fetal Bovine Serum) and cultured overnight at […] under 8% CO2. The medium was replaced with serum-free DMEM (Gibco, USA), and PPD, PPT or PDBu (phorbol-12, 13-dibutyrate: Sigma Co., USA) was added thereto at a concentration of 1 μM each. The cells were cultured further for 18 hours. The supernatant was isolated from each culture solution and concentrated through a concentration filter (viva spin centricon, obtained from: Vivascience, Binbrook Hill, Binbrook, England). The concentrate was prepared to have a protein concentration of 2 μg/ml and then subjected to electrophoresis on a 8% SDS-PAGE gel.
Protein bands on the gel were transferred to PVDF (polyvinylidene fluoride) membrane (Millipore Co., Bedford, Mass., USA) and blocked with 5% skim milk. The bands on PVDF were reacted with sAPPα-specific antibody 6E10 (1:2000 dilution, Cat. No. 320-05, Senetek, Maryland heights, Mo., USA) at room temperature for 2 hours. […] The protein bands were then quantified via image analysis.

[2] = system: neuroblastoma B103 cell line; test: MTT test: preventing the toxicity of beta-amyloid; format: cell-based; details: for Survival rate (%): B103 cells, beta-amyloid-only control = 100%
Protocol: In order to examine the activities of the compounds prepared in the Reference Example in preventing the toxicity of beta-amyloid, the MTT analysis (Gillardon, F. et al., Brain Research. No. 6: pp. 169-172 (1996)) was carried out as follows.
5×10^3 cells of neuroblastoma B103 cell line (donated by Dr. David Schubert of the Salk Institute, USA) were placed in each well of a 96-well plate with 100 μl of DMEM (Dulbecco's Minimal Eagle's Medium) containing 10% fetal bovine serum (FBS), and cultured at 37° C. under 8% CO2 for 1 day. […] The cells were cultured at 37° C. for 18 hours, treated with 15 μl of MTT solution [10 mg/ml solution of 3-(4,5-dimethyl-2-thiazolyl)-2,5-diphenyl-2H-tetrazolium bromide in phosphate buffered saline (PBS)], and allowed to react at 37° C. for 3 to 4 hours. 100 μl of lysis buffer (10% SDS, 50% dimethylformamide, pH 4.7) was added to the wells, and the cells were cultured overnight at room temperature and relative humidity of 90%. Optical density (OD) of each well was measured at […] and 630 nm, respectively, using a scanning multiwell spectrophotometer, and then the OD value at 630 nm was subtracted from that at 570 nm.
Setting the survival rate of the control group treated only with beta-amyloid as 100%, relative survival rates of the experimental groups treated with compound Y, ginsenosides Mc and Rc, PPD and PPT, respectively, were calculated, and the results are shown in Table 2 and FIG. 1. The obtained values were statistically significant.
When the same procedure as above was repeated except that the cells were treated simultaneously with the test compound and beta-amyloid, or treated with the test compound one hour after the beta-amyloid treatment, the results were almost the same as above.
Further, in order to assess the concentration-dependent activity of a test compound, the above procedure was repeated using PPT at concentrations ranging from […].

[3] = Degree of BBB penetration: pharmacokinetics in blood and brain by LC-mass; format: in vivo, Sprague-Dawley rat; details: SD rat; for detection of the peak in the brain tissue sample: 15 minutes after administration of 1 mg/kg of Rg1 or Rb1, FIGS. 10a and 10b
Protocol: A male Sprague-Dawley rat (weight 250-300 g) was lightly anesthetized with ether and catheterized with a polyethylene tube (PE-50) in the femoral artery and vein. After the rat recovered, a saline solution containing 1 mg/kg of Rg1 or Rb1 was administered into the femoral vein through the intravenous bolus administration. 300 μl blood samples were collected from the rat's femoral artery at 2, 5, 10, 15, 20, 30, 45 and 60 minutes after the administration. Each blood sample was centrifuged to obtain 100 μl of plasma. A plasma sample was prepared as in (2) of step 1 with the plasma. 20 μl of the sample was injected into the LC mass system as in Step 1, and ginsenosides Rg1 and Rb1 and their metabolites PPD and PPT were quantified. The plasma concentrations of ginsenosides and their metabolites were calculated in the forms of weight per plasma (ml) (in case of ginsenosides) or peak size (in case of metabolites).
Immediately after collecting the blood samples, the rats were decapitated and brain tissues were obtained therefrom. The tissues were rinsed with ice-cooled saline, placed in a 15 ml Falcon tube and then weighed precisely. Acetonitrile was added to the tube in an amount twice the weight of the tissue sample, and the sample was homogenized using a tissue homogenizer (Ultra-Turrax T25, JANKE&KUNKEL IKA-Labortechnik). The mixture was centrifuged at 3,000 rpm for 20 minutes. 300 μl of the resulting supernatant was dried in a speed-vac, and 300 μl of acetonitrile was added thereto. 20 μl of the resulting mixture was injected in the LC mass system as in Step 1 to quantify the concentrations of ginsenosides and their metabolites in the brain, and the measured concentrations were represented by weight per gram of the brain tissue or peak size.
Separation and detection conditions for ginsenosides Rg1 and Rb1 were as described in Step 1, and those for metabolites PPD and PPT were as follows:
The transfer rate of the substances into the brain (Kbrain) can be represented by the ratio of the mean concentration of the substance in the brain (Cmean,brain) to the mean plasma concentration (Cmean,plasma) as in Equation 1. [formula]
The mean concentration of a substance can be determined by dividing the area under the concentration-time curve corresponding to time 0 to t by t and, accordingly, the transfer rate of the substance into the brain (Kbrain) can be calculated by Equation 2 shown below. [formula]

[4] = test compound 1 μM + 25 μM beta-amyloid (25-35), 18 hours
[5] = test compound 1 μM alone, without beta-amyloid

Compound	sAPPα secretion level [1]	Survival rate (%) [2, 4] [%]	Survival rate (%) [2, 5] [%]	detection of the peak in the brain tissue sample [3]	concentration-dependent inhibitory activity against beta-amyloid toxicity (in words) ([2]; FIG. 2, PPT concentration series)	Survival rate (%) ([2]; test compound 10 μM + 25 μM beta-amyloid (25-35), 18 hours)	Survival rate (%) ([2]; test compound 10 μM alone, without beta-amyloid)	transfer rate into the brain (Kbrain) ([3]; calculated with Equations 1 and 2 (mean brain / mean plasma concentration)) [%]	concentration in the plasma versus the brain tissue (in words) ([3]; metabolite after 1 mg/kg intravenous ginsenoside, FIG. 12)
CC(C)=CCCC(C)(O)[C@H]1CC[C@]2(C)[C@@H]1[C@H](O)C[C@@H]1[C@@]3(C)CC[C@H](O)C(C)(C)[C@@H]3CC[C@]12C (stereo in doubt) [PPD, protopanaxadiol]	higher	106.7 ± 6.9	137.7 ± 4.8	well detected	–	–	–	–	–
CC(C)=CCC[C@](C)(O)[C@H]1CC[C@]2(C)[C@@H]1[C@H](O)C[C@@H]1[C@@]3(C)CC[C@H](O)C(C)(C)[C@@H]3[C@@H](O)C[C@]12C [PPT, protopanaxatriol]	higher	106.6 ± 1.2	157.4 ± 3.3	well detected	began to show its inhibitory activity at the μM level	119.7 ± 8.5	140.3 ± 6.4	130±46.4	almost identical
